One substance from patent publication US20160031909A1, “PORPHYRAZINE OPTICAL AND DUAL OPTICAL/ MR CONTRAST AND THERAPEUTIC AGENTS” (HOFFMAN/BARRETT, LLC, priority 2013, published 2016) can be followed below.

The nature of data set [1]: HPLC analysis of urine collected from mice. The format is in vivo, athymic nude mice.
Data set [2] relates to MDA-MB-231 orthotopic breast tumor. Briefly: In vivo tumor MRI in orthotopic breast tumor model. Also on record: species or system athymic nude mice. The method, then: (§1) Cu-Pz-Gd(III) was examined as a contrast agent in vivo in an orthotopic breast tumor model in athymic nude mice. MDA-MB-231 breast tumor cells expressing mCherry fluorescent protein were implanted in the mammary fat pad of mice and tumors were allowed to grow to about 5 mm in diameter at which time mice were treated with 450 nmol (50 mg/kg) Cu-Pz-Gd(III) together with saline treated control mice (FIG. 3A).
In a separate experiment focusing only on short time points (0-225 min), groups of mice (n=3) were treated with Cu-Pz-Gd(III) (450 nmol, 50 mg/kg), DOTA-Gd(I I I) (900 nmol, 25 mg/kg), and saline as a negative control (FIG. 4). Mice were imaged continuously after tail vein injections. […] Regions of interest (ROIs) were defined outside the periphery of tumors, at the inner rim, and at the center.
MDA-MB-231 cells (1×10^6) expressing mCherry fluorescent protein were inoculated subcutaneously (1:1 v/v matrigel:PBS) on the right mammary fat pad. Cells were maintained in DMEM media supplemented with 10% FBS prior to inoculation. The athymic nude mice, Crl:NU(NCr)-Foxnl^nm, were purchased from Charles River, Portage at 5-6 weeks old and 16-18 gram were allowed to acclimate for 5 days. One week post inoculation, each animal was screened for mCherry fluorescence wavelength using the IVIS small animal fluorescence imaging system to verify presence of the tumor.
Mice were anesthetized in an induction chamber with 3% inhaled isoflurane in oxygen, then transferred to an imaging bed with circulating warm water heating system, MRI compatible respiratory monitoring (SA Instruments, Stony Brook, N.Y.) and 1-2% isoflurane delivered via nosecone to maintain a surgical plane of anesthesia with respiratory rate at 90-100 breaths/min Mice were imaged prone with the tumor centered in a 40 mm diameter quadrature volume coil (Bruker Biospec, Billerica, Mass.). An AutoPac automated positioning system was used to reproducibly center the animals in the MRI system.
Mice were positioned in the MRI scanner as described above and localizer images were acquired. T1 maps were acquired using a FAIR-RARE non-selective inversion recovery sequence with static TR (18,000 ms) and TE (6.1 ms), and variable TI (30.5, 100, 200, 300, 500, 600, 700, 800, 900, 1000, 1100, 1200, 1300, 1400, 1600, 2000, 2500, 3000, 3500, 4000, 4500, 5000, and 6000 ms). Imaging parameters were as follows: field of view (FOV)=40×20 mm^2, matrix size(MTX)=512×133 pixels, number of slices=1, slice thickness=1.0 mm, and 1 average (total scan time=5 m 26 s).
(§2) Images were acquired at baseline, and 4, 24, and 48 hours after injection of 150 μL of imaging agent via the tail vein. One control animal was injected with saline; the remaining 9 animals were injected with 450 nmol Cu-Pz-Gd(III). Three animals were sacrificed after 4 hour, 24 hour, and 48 hour timepoints, respectively; the organs were collected for ICP-MS (described below) to measure biodistribution.
Mice were positioned in the MRI scanner as described above and localizer images were acquired. To improve signal to noise ratio, reduce respiratory artifacts, and increase tumor coverage, for this study we used a multi slice T1 map acquired using a variable repetition time saturation recovery sequence (RARE-VTR) with static TE (8.2 ms) and variable TR (175, 300, 600, 800, 1200, 2000, 4000 ms). Imaging parameters were as follows: FOV=10×7.5 mm, MTX=80×60, number of axial slices=5, slice thickness=1.0 mm, and 1 average (total scan time=6 min 48 sec). […]

Data set [3] can be described thus: Ex vivo biodistribution by ICP-MS. The format is in vivo, athymic nude mice. The protocol:
as §1, §2
Mice were sacrificed by CO2 inhalation followed by cervical dislocation. Blood, urine (where possible), tumor, liver, kidney, spleen, heart, lungs, and samples of skin and skeletal muscle were collected for elemental analysis by ICP-MS as described below. In one additional mouse that was not treated with an imaging agent, the tumor was collected and fixed in 10% formalin for histological analysis. […]

Entries after “also recorded” stand apart in the source; their conditions may differ.

Turning to “Cu[Pz(C19H28N8O7Gd)2]. Pz=18,21-bis(2-(1H-1,2,3-triazole-4-yl) ethoxy)-tris-[1,4-dioxino[g,l,q](2R,3R)-2,3-dimethoxy-2,3-dimethyll 25H,27H-benzo[b]porphyrazine; C19H28N8O7Gd=N-methyl-2-aminoacetamide-4,7,10-tris(carboxymethyl)-1,4,7,10-tetraazacyclododecylgadolinium(III)) [Cu-Pz-Gd(III)]”, the “form cleared in urine” value in data set [1] is listed as “cleared intact”. Besides, the “tumor T1 over time” value in data set [2] (0-225 min after tail vein injection, Cu-Pz-Gd(III) 450 nmol (50 mg/kg), DOTA-Gd(III) 900 nmol (25 mg/kg)) is “persistent; also recorded: becomes progressively shorter; also recorded: steady accumulation of Cu-Pz-Gd(III) in tumor tissue with greater accumulation in the necrotic core; also recorded: decrease in T1 is much more persistent”. Further, in data set [2] (450 nmol (50 mg/kg), 4 hour timepoint), the “MR contrast enhancement of tumors” value is reported as “significant contrast enhancement”. For the same substance, in data set [2] (450 nmol, 50 mg/kg), the “time at which T1 of tumor center is roughly equivalent to the rim” value is listed as 135 min. In data set [2] (50 mg/kg, relative to saline treated controls), the “average T1 of tumor regions” value is reported as “decreased relative to saline-treated controls; also recorded: decreased relative to saline treated controls”. The route of clearance result in data set [3] (biodistribution data by ICP-MS) is “rapidly cleared, primarily through the kidneys; also recorded: primarily through the kidneys and liver; also recorded: cleared through the kidneys and liver”. The tumor accumulation result in data set [3] (ex vivo biodistribution study) is “accumulates in tumors”.
